# Where a SMILES comes first, the peptide text is derived from it. The star is where a group is joined. X1 = O=C(CCCCSc1ncnc2nc[nH]c12)*
# Experiment: from Bachrata, M.; Bezakova, Z.; Pesák, M.; Blesova, M. (1983). Study of physicochemical properties of substances with cancerostatic effect. II. Study of lipo-hydrophilic parameters. Acta Fac. Pharm. …
# Settings: pH 7.0
row,SMILES,logD
1,CCOC(=O)[C@H](CC(C)C)NC(=O)CNC(=O)CNC(=O)CCCCSc1ncnc2nc[nH]c12,1.07
2,c1ncc2[nH]cnc2n1,-0.21
3,CCOC(=O)CNC(=O)CNC(=O)CNC(=O)CNC(=O)CCCCSc1ncnc2nc[nH]c12 (X1-GGGG-OEt),-0.23
4,CCOC(=O)C(NC(=O)CCCCSc1ncnc2nc[nH]c12)c1ccccc1 (configuration not stated),1.13
5,CCOC(=O)CNC(=O)CNC(=O)CNC(=O)CCCCSc1ncnc2nc[nH]c12,0.21
6,CCOC(=O)C(NC(=O)CCCCSc1ncnc2[nH]cnc12)C(C)C (racemic),1.89

# Results, then the molecule that gave them:
row,logD,SMILES
1,1.39,CCCCOC(=O)CNC(=O)CCCCSc1ncnc2nc[nH]c12
2,1.33,CCOC(=O)C[C@H](NC(=O)CCCCSc1ncnc2nc[nH]c12)C(=O)OCC
3,0.91,CCOC(=O)CNC(=O)CCCCSc1ncnc2nc[nH]c12
4,1.37,CCCOC(=O)CNC(=O)CCCCSc1ncnc2nc[nH]c12
5,0.5,CCOC(=O)CNC(=O)CNC(=O)CCCCSc1ncnc2nc[nH]c12
6,1.51,CCOC(=O)C(C)NC(=O)CCCCSc1ncnc2nc[nH]c12 (configuration not stated)

# Source: the SangsterLogP compilation
